Laboratory results as given in US20240398817A1, “CARDIO- AND RENOSAFE ANTIDIABETIC THERAPY” (priority 2018, published 2024).

System: patients with type 2 diabetes at high vascular risk
Assay: Cardiovascular and Renal Outcomes Trial: linagliptin 5 mg once daily vs placebo on top of standard of care
Type: in vivo
Conditions: for Hazard ratio for hospitalised heart failure: vs placebo
Description: The effect of linagliptin on cardiovascular risk in adult patients with type 2 diabetes mellitus and with increased CV risk evidenced by a history of established macrovascular or renal disease (e.g. as defined herein) was evaluated in a multi-center, multi-national, randomized, double-blind parallel group trial. The trial compared the risk of experiencing a major adverse cardiovascular event (MACE) between linagliptin and placebo when these were added to and used concomitantly with standard of care treatments for diabetes (HbA1c), cardiovascular risk factors and renal disease.
The primary endpoint in this trial was the time to first occurrence of three point (3P) MACE. A major adverse cardiac event was defined as a cardiovascular death or a nonfatal myocardial infarction (MI) or a nonfatal stroke. The statistical analysis plan tested for non-inferiority for the occurrence of (3P) MACE. […] The secondary endpoint was a renal composite, defined as renal death or sustained end stage renal disease or sustained decrease of 40% or more in eGFR.
Type 2 diabetes patient with insufficient glycemic control (naïve or pre-treated with any antidiabetic background medication, excluding treatment with GLP-1 receptor agonists, DPP-4inhibitors or SGLT-2 inhibitors if ≥consecutive 7 days, e.g. having HbA1c 6.5-10%), and high risk of cardiovascular events, e.g. defined by: • albuminuria (micro or macro) and previous macrovascular disease: e.g. defined according to Condition I as indicated below; • and/or • impaired renal function: e.g. as defined according to Condition II as indicated below;
Background and aims: People with type 2 diabetes (T2D) are at increased risk for hospitalization for heart failure (hHF), particularly in the setting of concomitant cardiovascular (CV) and/or kidney disease. […] Here we present analyses of HF outcomes with the DPP-4 inhibitor linagliptin (LINA) vs. placebo (PBO) from a Cardiovascular and Renal Outcomes Trial assessing cardiovascular safety and renal microvascular outcome in patients with type 2 diabetes at high vascular risk, a large CV outcomes trial that enrolled participants with T2D at high risk for hHF due to concomitant CV and/or chronic kidney disease. Materials and methods: People with T2D and concomitant CV and/or kidney disease were randomized to receive LINA 5 mg, or PBO once daily (1:1), on top of standard of care. All hHF, CV outcomes, and deaths were centrally adjudicated, with individual and composite HF-related outcomes analyses comparing LINA vs. placebo. Investigator-reported HF-related adverse events, whether or not confirmed by adjudication, were also analyzed. A Cox proportional hazards model adjusting for region and history of HF was used for analyses of first events. Recurrent hHF events were analyzed using a negative binomial model.
Methods: The present Cardiovascular and Renal Outcomes Trial randomized people with T2D and i) concomitant CV disease with UACR >30 mg/g or ii) prevalent CKD (i.e. GFR <45 ml/min/1.73m2 and/or UACR >200 mg/g) to receive the DPP-4 inhibitor linagliptin (5 mg) or placebo once daily in a double-blind fashion. The primary CV endpoint was 3P-MACE, with a key secondary kidney endpoint (adjudicated ESKD, renal death, or sustained ≥40% decrease in eGFR from baseline) and other renal outcomes (including albuminuria and eGFR slope) also assessed. Subgroups were assessed by baseline kidney function (eGFR ≥/<45 ml/min/1.73m2and eGFR ≥/<30, 45 or 60 ml/min/1.73m2).
Adults with type 2 diabetes, HbA1c 6.5-10.0% inclusive, and high CV risk were eligible for inclusion. […] Macrovascular disease eligibility criteria was based on documented and confirmed history of myocardial infarction, coronary artery disease, stroke, carotid artery disease, or peripheral artery disease. Participants with end-stage kidney disease (ESKD), defined as eGFR <15 or requiring maintenance dialysis, were excluded.

[1] = CKD prognosis by KDIGO Very high
[2] = Calcium channel blockers (CCB) No
[3] = Calcium channel blockers (CCB) Yes
[4] = Cardiorenal risk: Albuminuria and previous macrovascular disease plus eGFR 45-75 mL/min/1.73 m^2 with an UACR >200 mg/g
[5] = Cardiorenal risk: Albuminuria and previous macrovascular disease plus renal impairment (eGFR 15-<45 mL/min/1.73 m^2 with any UACR mg/g)
[6] = Cardiorenal risk: Albuminuria and previous macrovascular disease without eGFR>45 mL/min/1.73 m2
[7] = Duration of type 2 diabetes >5 to <10 years
[8] = Duration of type 2 diabetes ≤5 years

## CC#CCn1c(N2CCC[C@@H](N)C2)nc2c1c(=O)n(Cc1nc(C)c3ccccc3n1)c(=O)n2C [Linagliptin, 1-[(4-methyl-quinazolin-2-yl)methyl]-3-methyl-7-(2-butyn-1-yl)-8-(3-(R)-amino-piperidin-1-yl)-xanthine]
Body mass index ≥30 kg/m^2
  3-point MACE: hazard ratio vs placebo: 1.06
  3-point MACE: patients with event/patients analyzed: 243/1978
  Key secondary kidney outcome: hazard ratio vs placebo: 0.96
  Key secondary kidney outcome: patients with event/patients analyzed: 165/1978
  Patients with event/patients analysed, hospitalised heart failure: 131/1978
  Hazard ratio for hospitalised heart failure: 0.86
CKD prognosis by KDIGO High
  3-point MACE: hazard ratio vs placebo: 1.05
  3-point MACE: patients with event/patients analyzed: 111/995
  Key secondary kidney outcome: patients with event/patients analyzed: 57/995
  Patients with event/patients analysed, hospitalised heart failure: 45/995
CKD prognosis by KDIGO Low
  3-point MACE: hazard ratio vs placebo: 1.13
  3-point MACE: patients with event/patients analyzed: 11/232
  Key secondary kidney outcome: patients with event/patients analyzed: 8/232
  Patients with event/patients analysed, hospitalised heart failure: 2/232
CKD prognosis by KDIGO Medium
  3-point MACE: hazard ratio vs placebo: 0.89
  3-point MACE: patients with event/patients analyzed: 61/766
  Key secondary kidney outcome: patients with event/patients analyzed: 14/766
  Patients with event/patients analysed, hospitalised heart failure: 18/766
[1]
  3-point MACE: hazard ratio vs placebo: 1.04
  3-point MACE: patients with event/patients analyzed: 250/1499
  Key secondary kidney outcome: patients with event/patients analyzed: 248/1499
  Patients with event/patients analysed, hospitalised heart failure: 144/1499
[2]
  Patients with event/patients analysed, hospitalised heart failure: 113/2061
  Hazard ratio for hospitalised heart failure: 0.86
[3]
  Patients with event/patients analysed, hospitalised heart failure: 96/1433
  Hazard ratio for hospitalised heart failure: 0.94
Calcium channel blockers No
  3-point MACE: hazard ratio vs placebo: 0.91
  3-point MACE: patients with event/patients analyzed: 239/2061
  Key secondary kidney outcome: hazard ratio vs placebo: 1.03
  Key secondary kidney outcome: patients with event/patients analyzed: 155/2061
Calcium channel blockers Yes
  3-point MACE: hazard ratio vs placebo: 1.21
  3-point MACE: patients with event/patients analyzed: 195/1433
  Key secondary kidney outcome: hazard ratio vs placebo: 1.05
  Key secondary kidney outcome: patients with event/patients analyzed: 172/2860
Cardiorenal risk Cat A
  3-point MACE: hazard ratio vs placebo: 0.97
  3-point MACE: patients with event/patients analyzed: 117/1361
  Key secondary kidney outcome: hazard ratio vs placebo: 1.22
  Key secondary kidney outcome: patients with event/patients analyzed: 38/1361
Cardiorenal risk Cat B
  3-point MACE: hazard ratio vs placebo: 0.92
  3-point MACE: patients with event/patients analyzed: 86/394
  Key secondary kidney outcome: hazard ratio vs placebo: 0.79
  Key secondary kidney outcome: patients with event/patients analyzed: 51/394
Cardiorenal risk Cat C
  3-point MACE: hazard ratio vs placebo: 0.76
  3-point MACE: patients with event/patients analyzed: 33/253
  Key secondary kidney outcome: hazard ratio vs placebo: 1.53
  Key secondary kidney outcome: patients with event/patients analyzed: 23/253
Cardiorenal risk Cat D
  3-point MACE: hazard ratio vs placebo: 1.12
  3-point MACE: patients with event/patients analyzed: 163/1153
  Key secondary kidney outcome: hazard ratio vs placebo: 1.01
  Key secondary kidney outcome: patients with event/patients analyzed: 180/1153
Cardiorenal risk Cat E
  3-point MACE: hazard ratio vs placebo: 1.13
  3-point MACE: patients with event/patients analyzed: 32/309
  Key secondary kidney outcome: hazard ratio vs placebo: 1.04
  Key secondary kidney outcome: patients with event/patients analyzed: 35/309
[4]
  Patients with event/patients analysed, hospitalised heart failure: 67/647
  Hazard ratio for hospitalised heart failure: 0.81
[5]
  Patients with event/patients analysed, hospitalised heart failure: 95/14612
  Hazard ratio for hospitalised heart failure: 0.86
[6]
  Patients with event/patients analysed, hospitalised heart failure: 46/1361
  Hazard ratio for hospitalised heart failure: 1.19
Diuretics No
  3-point MACE: hazard ratio vs placebo: 1.15
  3-point MACE: patients with event/patients analyzed: 159/1602
  Key secondary kidney outcome: hazard ratio vs placebo: 1.06
  Key secondary kidney outcome: patients with event/patients analyzed: 129/1602
  Patients with event/patients analysed, hospitalised heart failure: 53/1602
  Hazard ratio for hospitalised heart failure: 1.26
Diuretics Yes
  3-point MACE: hazard ratio vs placebo: 0.97
  3-point MACE: patients with event/patients analyzed: 275/1892
  Key secondary kidney outcome: hazard ratio vs placebo: 1.04
  Key secondary kidney outcome: patients with event/patients analyzed: 198/1892
  Patients with event/patients analysed, hospitalised heart failure: 156/1892
  Hazard ratio for hospitalised heart failure: 0.83
[7]
  3-point MACE: hazard ratio vs placebo: 1.01
  3-point MACE: patients with event/patients analyzed: 73/696
  Key secondary kidney outcome: hazard ratio vs placebo: 0.94
  Key secondary kidney outcome: patients with event/patients analyzed: 56/699
  Patients with event/patients analysed, hospitalised heart failure: 42/696
  Hazard ratio for hospitalised heart failure: 0.96
[8]
  3-point MACE: hazard ratio vs placebo: 0.98
  3-point MACE: patients with event/patients analyzed: 45/521
  Key secondary kidney outcome: hazard ratio vs placebo: 1.97
  Key secondary kidney outcome: patients with event/patients analyzed: 41/521
  Patients with event/patients analysed, hospitalised heart failure: 18/521
  Hazard ratio for hospitalised heart failure: 0.82
Duration of type 2 diabetes ≥10 years
  3-point MACE: hazard ratio vs placebo: 1.03
